Test results published in patent US20220340685A1, “COMBINATION THERAPY WITH ENTPD2 AND CD73 ANTIBODIES” (Novartis AG, priority 2019, published 2022).

Tested on: human ENTPD2 engineered B16LM3 clone B5
Assay: Human ENTPD2 engineered B16LM3 clone B5 model, combination with A2AR antagonist NIR178
Format: in vivo
Conditions: NIR178 p.o. 4 days on and 3 days off, 50 or 200 mg/kg; antibody or isotype 10 mg/kg i.v. day 1
Protocol: Human ENTPD2-engineered B16LM3 clone B5 was established in female C57BL/6 mice by subcutaneous injection of 0.5×10^6 cells into the right flank of each mouse. Once tumors reached approximately 50 mm^3, mice were randomized according to tumor volume into treatment groups (n=8 per group). Mice received an intravenous (i.v.) treatment of either anti-ENTPD2 mAb1 at a final dose of 10/mg/kg or a non-specific human IgG1 isotype control 10 mg/kg on day 1 of study. NIR178 was administered per os (p.o.) for 4 days on and 3 days off, starting at the beginning of study at either 50 mg/kg or 200 mg/kg. All doses were adjusted to individual mouse body weights. The study was carried out for thirteen days post treatment initiation and tumor volumes were assessed every other day to assess efficacy.

Nc1nc(-n2cccn2)nc(-n2cccn2)c1Br [NIR178, 5-bromo-2,6-di-(1H-pyrazol-1-yl)pyrimidine-4-amine]
anti-tumor efficacy: No significant anti-tumor efficacy
